Laboratory results published in PubChem BioAssay (NCI).
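Tested at 5 concentrations; 48 h exposure; 96-well plates; endpoints linearly interpolated, else capped at highest concentration. The concentration for 50% growth inhibition is given as GI50. The concentration for full growth arrest is given as TGI.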

How the values were obtained:
Experiment in all cases: growth of human tumour cells (NCI), 48 h
[1] = test system: CCRF-CEM leukemia
[2] = test system: ACHN renal
[3] = test system: SNB-19 CNS
[4] = test system: T-47D breast
[5] = test system: MALME-3M melanoma
[6] = test system: OVCAR-5 ovarian
[7] = test system: HCT-116 colon
[8] = test system: UACC-257 melanoma
[9] = test system: RPMI-8226 leukemia
[10] = test system: OVCAR-8 ovarian
[11] = test system: MDA-MB-435
[12] = test system: 786-0 renal
[13] = test system: UO-31 renal
[14] = test system: NCI/ADR-RES ovarian
[15] = test system: HL-60(TB) leukemia
[16] = test system: OVCAR-3 ovarian
[17] = test system: RXF 393 renal
[18] = test system: SR leukemia
[19] = test system: NCI-H23 lung
[20] = test system: SF-539 CNS
[21] = test system: SF-268 CNS
[22] = test system: SK-MEL-28 melanoma
[23] = test system: MOLT-4 leukemia
[24] = test system: TK-10 renal
[25] = test system: COLO 205 colon
[26] = test system: LOX IMVI melanoma
[27] = test system: NCI-H522 lung
[28] = test system: MDA-MB-231 breast
[29] = test system: HCC-2998 colon
[30] = test system: KM12 colon
[31] = test system: CAKI-1 renal
[32] = test system: SNB-75 CNS
[33] = test system: HOP-92 NSCLC
[34] = test system: MCF7 breast
[35] = test system: UACC-62 melanoma
[36] = test system: BT-549 breast
[37] = test system: U251 CNS
[38] = test system: M14 melanoma
[39] = test system: IGROV1 ovarian
[40] = test system: SF-295 CNS
[41] = test system: NCI-H226 lung
[42] = test system: DU-145 prostate
[43] = test system: SK-MEL-5 melanoma
[44] = test system: K-562 leukemia
[45] = test system: HOP-62 NSCLC
[46] = test system: SK-MEL-2 melanoma
[47] = test system: SK-OV-3 ovarian
[48] = test system: A549 NSCLC
[49] = test system: HS 578T breast
[50] = test system: OVCAR-4 ovarian
[51] = test system: PC-3 prostate
[52] = test system: SW-620 colon
[53] = test system: NCI-H460 lung
[54] = test system: HT29 colon
[55] = test system: HCT-15 colon
[56] = test system: SN12C renal
[57] = test system: A498 renal

Question: For `COc1ccc(Nc2nc(NCCNc3ccnc4cc(Cl)ccc34)nc(N3CCOCC3)n2)cc1`, which GI50 [1] is on record?
Answer: Its GI50 is 2.95 µM.

Question: What about the TGI [1] of the same compound?
Answer: Its TGI is 15.4 µM.

Question: What about the GI50 [2] of the same compound?
Answer: The GI50 was 4.77 µM.

Question: What about the TGI [2] of the same compound?
Answer: The TGI was 18.1 µM.

Question: What about the GI50 [3] of the same compound?
Answer: Its GI50 is 10.6 µM.

Question: What about the TGI [3] of the same compound?
Answer: Its TGI is 23.6 µM.

Question: And the GI50 [4]?
Answer: The GI50 was 11.6 µM.

Question: And the TGI [4]?
Answer: Its TGI is 28 µM.

Question: And the GI50 [5]?
Answer: The GI50 was 1.94 µM.

Question: What about the TGI [5] of the same compound?
Answer: The TGI was 3.47 µM.

Question: What about the GI50 [6] of the same compound?
Answer: The GI50 was 15.7 µM.

Question: And the TGI [6]?
Answer: Its TGI is 31.4 µM.

Question: And the GI50 [7]?
Answer: The GI50 was 3.01 µM.

Question: And the TGI [7]?
Answer: Its TGI is 14.8 µM.

Question: What about the GI50 [8] of the same compound?
Answer: The GI50 was 1.87 µM.

Question: And the TGI [8]?
Answer: The TGI was 3.61 µM.

Question: And the GI50 [9]?
Answer: The GI50 was 2.75 µM.

Question: And the TGI [9]?
Answer: Its TGI is 13.1 µM.

Question: And the GI50 [10]?
Answer: The GI50 was 6.46 µM.

Question: And the TGI [10]?
Answer: The TGI was 27.4 µM.

Question: What about the GI50 [11] of the same compound?
Answer: The GI50 was 1.82 µM.

Question: And the TGI [11]?
Answer: Its TGI is 3.49 µM.

Question: And the GI50 [12]?
Answer: Its GI50 is 2.11 µM.

Question: And the TGI [12]?
Answer: Its TGI is 12.3 µM.

Question: What about the GI50 [13] of the same compound?
Answer: Its GI50 is 1.33 µM.

Question: And the TGI [13]?
Answer: Its TGI is 14.2 µM.

Question: What about the GI50 [14] of the same compound?
Answer: The GI50 was 6.38 µM.

Question: What about the TGI [14] of the same compound?
Answer: The TGI was 24.9 µM.

Question: And the GI50 [15]?
Answer: Its GI50 is 1.13 µM.

Question: What about the TGI [15] of the same compound?
Answer: The TGI was 12.7 µM.

Question: What about the GI50 [16] of the same compound?
Answer: The GI50 was 11.5 µM.

Question: And the TGI [16]?
Answer: The TGI was 24.3 µM.

Question: What about the GI50 [17] of the same compound?
Answer: Its GI50 is 1.89 µM.

Question: What about the TGI [17] of the same compound?
Answer: Its TGI is 8.92 µM.

Question: And the GI50 [18]?
Answer: The GI50 was 2.01 µM.

Question: What about the TGI [18] of the same compound?
Answer: Its TGI is 7.36 µM.

Question: And the GI50 [19]?
Answer: Its GI50 is 13.7 µM.

Question: What about the TGI [19] of the same compound?
Answer: Its TGI is 29.7 µM.

Question: And the GI50 [20]?
Answer: Its GI50 is 2.18 µM.

Question: And the TGI [20]?
Answer: Its TGI is 7.54 µM.

Question: And the GI50 [21]?
Answer: Its GI50 is 5.02 µM.

Question: And the TGI [21]?
Answer: The TGI was 19.5 µM.

Question: And the GI50 [22]?
Answer: The GI50 was 1.81 µM.

Question: What about the TGI [22] of the same compound?
Answer: The TGI was 3.28 µM.

Question: What about the GI50 [23] of the same compound?
Answer: The GI50 was 2.01 µM.

Question: And the TGI [23]?
Answer: Its TGI is 11.2 µM.

Question: What about the GI50 [24] of the same compound?
Answer: The GI50 was 7.64 µM.

Question: What about the TGI [24] of the same compound?
Answer: The TGI was 20.6 µM.

Question: And the GI50 [25]?
Answer: Its GI50 is 1.53 µM.

Question: And the TGI [25]?
Answer: The TGI was 3.33 µM.

Question: And the GI50 [26]?
Answer: The GI50 was 3.01 µM.

Question: And the TGI [26]?
Answer: The TGI was 10.6 µM.

Question: What about the GI50 [27] of the same compound?
Answer: Its GI50 is 3.85 µM.

Question: What about the TGI [27] of the same compound?
Answer: The TGI was 11.5 µM.

Question: What about the GI50 [28] of the same compound?
Answer: Its GI50 is 2.73 µM.

Question: What about the TGI [28] of the same compound?
Answer: The TGI was 10.2 µM.

Question: What about the GI50 [29] of the same compound?
Answer: Its GI50 is 2.08 µM.

Question: And the TGI [29]?
Answer: The TGI was 3.88 µM.

Question: What about the GI50 [30] of the same compound?
Answer: The GI50 was 5.18 µM.

Question: What about the TGI [30] of the same compound?
Answer: Its TGI is 18 µM.

Question: What about the GI50 [31] of the same compound?
Answer: The GI50 was 4.17 µM.

Question: And the TGI [31]?
Answer: The TGI was 17.5 µM.

Question: And the GI50 [32]?
Answer: The GI50 was 2.09 µM.

Question: What about the TGI [32] of the same compound?
Answer: The TGI was 8.73 µM.

Question: What about the GI50 [33] of the same compound?
Answer: The GI50 was 1.16 µM.

Question: What about the TGI [33] of the same compound?
Answer: Its TGI is 13 µM.

Question: What about the GI50 [34] of the same compound?
Answer: Its GI50 is 2.86 µM.

Question: And the TGI [34]?
Answer: The TGI was 12.8 µM.

Question: What about the GI50 [35] of the same compound?
Answer: Its GI50 is 1.85 µM.

Question: And the TGI [35]?
Answer: The TGI was 3.59 µM.

Question: And the GI50 [36]?
Answer: Its GI50 is 9.92 µM.

Question: And the TGI [36]?
Answer: Its TGI is 22.1 µM.

Question: What about the GI50 [37] of the same compound?
Answer: Its GI50 is 3.1 µM.

Question: What about the TGI [37] of the same compound?
Answer: The TGI was 15.4 µM.

Question: And the GI50 [38]?
Answer: Its GI50 is 1.86 µM.

Question: And the TGI [38]?
Answer: The TGI was 3.47 µM.

Question: What about the GI50 [39] of the same compound?
Answer: Its GI50 is 8.43 µM.

Question: And the TGI [39]?
Answer: The TGI was 23.4 µM.

Question: What about the GI50 [40] of the same compound?
Answer: Its GI50 is 2.05 µM.

Question: What about the TGI [40] of the same compound?
Answer: Its TGI is 3.92 µM.

Question: What about the GI50 [41] of the same compound?
Answer: The GI50 was 3.89 µM.

Question: And the TGI [41]?
Answer: The TGI was 18.3 µM.

Question: What about the GI50 [42] of the same compound?
Answer: The GI50 was 9.8 µM.

Question: What about the TGI [42] of the same compound?
Answer: The TGI was 21.9 µM.

Question: And the GI50 [43]?
Answer: Its GI50 is 1.59 µM.

Question: What about the TGI [43] of the same compound?
Answer: Its TGI is 3.04 µM.

Question: What about the GI50 [44] of the same compound?
Answer: The GI50 was 2.09 µM.

Question: And the TGI [44]?
Answer: The TGI was 7.82 µM.

Question: What about the GI50 [45] of the same compound?
Answer: The GI50 was 8.09 µM.

Question: What about the TGI [45] of the same compound?
Answer: The TGI was 21.6 µM.

Question: What about the GI50 [46] of the same compound?
Answer: Its GI50 is 2.19 µM.

Question: What about the TGI [46] of the same compound?
Answer: Its TGI is 4.28 µM.

Question: What about the GI50 [47] of the same compound?
Answer: Its GI50 is 11.7 µM.

Question: What about the TGI [47] of the same compound?
Answer: Its TGI is 24.6 µM.

Question: And the GI50 [48]?
Answer: The GI50 was 4.87 µM.

Question: And the TGI [48]?
Answer: The TGI was 20.3 µM.

Question: And the GI50 [49]?
Answer: The GI50 was 3.91 µM.

Question: And the TGI [49]?
Answer: Its TGI is 24.1 µM.

Question: And the GI50 [50]?
Answer: Its GI50 is 9 µM.

Question: What about the TGI [50] of the same compound?
Answer: The TGI was 24.5 µM.

Question: What about the GI50 [51] of the same compound?
Answer: Its GI50 is 3.94 µM.

Question: What about the TGI [51] of the same compound?
Answer: Its TGI is 19.8 µM.

Question: What about the GI50 [52] of the same compound?
Answer: Its GI50 is 3.47 µM.

Question: And the TGI [52]?
Answer: The TGI was 13.4 µM.

Question: And the GI50 [53]?
Answer: Its GI50 is 4.58 µM.

Question: What about the TGI [53] of the same compound?
Answer: Its TGI is 19.3 µM.

Question: And the GI50 [54]?
Answer: The GI50 was 1.07 µM.

Question: What about the TGI [54] of the same compound?
Answer: Its TGI is 3.75 µM.

Question: And the GI50 [55]?
Answer: The GI50 was 2.63 µM.

Question: And the TGI [55]?
Answer: Its TGI is 10.9 µM.

Question: What about the GI50 [56] of the same compound?
Answer: The GI50 was 8.73 µM.

Question: What about the TGI [56] of the same compound?
Answer: Its TGI is 23.4 µM.

Question: What about the GI50 [57] of the same compound?
Answer: Its GI50 is 0.272 µM.

Question: What about the TGI [57] of the same compound?
Answer: Its TGI is 2.19 µM.
